Experimental data from patent US20230082430A1 (C4 Therapeutics, Inc., priority 2019, published 2023).

Test system: NCIH929.1 cells
Test: Cell viability assay for Table 2 (CellTiter-Glo 2.0, ATP quantification, 96 hr)
Assay type: cell-based
Conditions: 96 h, NCIH929.1 cell viability, 96 hr, top concentration 1 μM, 14 points half log titration; read-out: IC50
Description: Cell Viability Assay for Table 2
CellTiter-Glo® 2.0 Assay was purchased from Promega (Madison, Wis., USA). NCIH929.1 cell line was purchased from ATCC (Manassas, Va., USA). Cell culture flasks and 384-well microplates were acquired from VWR (Radnor, Pa., USA).

Question: Which IC50 does the source give for `O=C1CCC(N2C(=O)c3cccc4c(Cc5cnn(C6CCN(C(=O)C78COC(C7)C8)CC6)c5)ccc2c34)C(=O)N1` (stereo not shown) [Compound 37, 3-(6-((1-(1-(2-oxabicyclo[2.1.1]hexane-4-carbonyl)piperidin-4-yl)-1H-pyrazol-4-yl)methyl)-2-oxobenzo[cd]indol-1(2H)-yl)piperidine-2,6-dione] here?
Answer: < 1 nM

Question: How did the IC50 turn out when `N#CC1(C(=O)N2CCC(n3cc(Cc4ccc5c6c(cccc46)C(=O)N5C4CCC(=O)NC4=O)cn3)CC2)CC1` (stereo not shown) [Compound 38, 1-(4-(4-((1-(2,6-dioxopiperidin-3-yl)-2-oxo-l,2-dihydrobenzo[cd]indol-6-yl)methyl)-1H-pyrazol-1-yl)piperidine-1-carbonyl)cyclopropane-1-carbonitrile] was run?
Answer: < 1 nM

Question: How did the IC50 turn out when `N#CC1(C(=O)N2CCC(n3cc(Cc4ccc5c6c(cccc46)C(=O)N5C4CCC(=O)NC4=O)cn3)CC2)CCC1` (stereo not shown) [Compound 39, 1-(4-(4-((1-(2,6-dioxopiperidin-3-yl)-2-oxo-1,2-dihydrobenzo[cd]indol-6-yl)methyl)-1H-pyrazol-1-yl)piperidine-1-carbonyl)cyclobutane-1-carbonitrile] was run?
Answer: < 1 nM

Question: With `CC(C)(C#N)C(=O)N1CCC(n2cc(Cc3ccc4c5c(cccc35)C(=O)N4C3CCC(=O)NC3=O)cn2)CC1` (stereo not shown) [Compound 40, 3-(4-(4-((1-(2,6-dioxopiperidin-3-yl)-2-oxo-1,2-dihydrobenzo[cd]indol-6-yl)methyl)-1H-pyrazol-1-yl)piperidin-1-yl)-2,2-dimethyl-3-oxopropanenitrile] as the compound, how does the IC50 read?
Answer: < 1 nM

Question: `CC1(C(=O)N2CCC(n3cc(Cc4ccc5c6c(cccc46)C(=O)N5C4CCC(=O)NC4=O)cn3)CC2)CCOCC1` (stereo not shown) [Compound 41, 3-(6-((1-(1-(4-methyltetrahydro-2H-pyran-4-carbonyl)piperidin-4-yl)-1H-pyrazol-4-yl)methyl)-2-oxobenzo[cd]indol-1(2H)-yl)piperidine-2,6-dione] was tested. Which IC50 did it give?
Answer: < 1 nM

Question: `O=C1CCC(N2C(=O)c3cccc4c(Cc5cnn(C6CCN(C(=O)c7ccncc7)CC6)c5)ccc2c34)C(=O)N1` (stereo not shown) [Compound 42, 3-(6-((1-(1-isonicotinoylpiperidin-4-yl)-1H-pyrazol-4-yl)methyl)-2-oxobenzo[cd]indol-1(2H)-yl)piperidine-2,6-dione] was tested. Which IC50 did it give?
Answer: < 1 nM

Question: How did the IC50 turn out when `O=C1CCC(N2C(=O)c3cccc4c(Cc5cnn(C6CCN(C(=O)c7cccnc7)CC6)c5)ccc2c34)C(=O)N1` (stereo not shown) [Compound 43, 3-(6-((1-(1-nicotinoylpiperidin-4-yl)-1H-pyrazol-4-yl)methyl)-2-oxobenzo[cd]indol-1(2H)-yl)piperidine-2,6-dione] was run?
Answer: < 1 nM

Question: How did the IC50 turn out when `CC(C)(C)C(=O)N1CCC(n2cc(Cc3ccc4c5c(cccc35)C(=O)N4C3CCC(=O)NC3=O)cn2)CC1` (stereo not shown) [Compound 44, 3-(2-oxo-6-((1-(1-pivaloylpiperidin-4-yl)-1H-pyrazol-4-yl)methyl)benzo[cd]indol-1(2H)-yl)piperidine-2,6-dione] was run?
Answer: < 1 nM

Question: With `Cc1cccc(C)c1C(=O)N1CCC(n2cc(Cc3ccc4c5c(cccc35)C(=O)N4C3CCC(=O)NC3=O)cn2)CC1` (stereo not shown) [Compound 45, 3-(6-((1-(1-(2,6-dimethylbenzoyl)piperidin-4-yl)-1H-pyrazol-4-yl)methyl)-2-oxobenzo[cd]indol-1(2H)-yl)piperidine-2,6-dione] as the compound, how does the IC50 read?
Answer: < 1 nM

Question: With `O=C1CCC(N2C(=O)c3cccc4c(Cc5cnn(C6CCN(C(=O)c7ccccn7)CC6)c5)ccc2c34)C(=O)N1` (stereo not shown) [Compound 46, 3-(2-oxo-6-((1-(1-picolinoylpiperidin-4-yl)-1H-pyrazol-4-yl)methyl)benzo[cd]indol-1(2H)-yl)piperidine-2,6-dione] as the compound, how does the IC50 read?
Answer: < 1 nM

Question: For `O=C1CCC(N2C(=O)c3cccc4c(Cc5cnn(C6CCN(C(=O)c7ccccc7)CC6)c5)ccc2c34)C(=O)N1` (stereo not shown) [Compound 47, 3-(6-((1-(1-benzoylpiperidin-4-yl)-1H-pyrazol-4-yl)methyl)-2-oxobenzo[cd]indol-1(2H)-yl)piperidine-2,6-dione], which IC50 is on record?
Answer: < 1 nM

Question: How did the IC50 turn out when `O=C1CCC(N2C(=O)c3cccc4c(Cc5cnn(C6CCN(C(=O)C78CC(CO7)C8)CC6)c5)ccc2c34)C(=O)N1` (stereo not shown) [Compound 48, 3-(6-((1-(1-(2-oxabicyclo[2.1.1]hexane-1-carbonyl)piperidin-4-yl)-1H-pyrazol-4-yl)methyl)-2-oxobenzo[cd]indol-1(2H)-yl)piperidine-2,6-dione] was run?
Answer: < 1 nM

Question: `CC12CC(C(=O)N3CCC(n4cc(Cc5ccc6c7c(cccc57)C(=O)N6C5CCC(=O)NC5=O)cn4)CC3)(CCO1)C2` (stereo not shown) [Compound 49, 3-(6-((1-(1-(1-methyl-2-oxabicyclo[3.1.1]heptane-5-carbonyl)piperidin-4-yl)-1H-pyrazol-4-yl)methyl)-2-oxobenzo[cd]indol-1(2H)-yl)piperidine-2,6-dione] was tested. Which IC50 did it give?
Answer: < 1 nM

Question: Which IC50 does the source give for `O=C1CCC(N2C(=O)c3cccc4c(Cc5cnn(C6CCN(C(=O)C78CCCC(C7)C8)CC6)c5)ccc2c34)C(=O)N1` (stereo not shown) [Compound 50, 3-(6-((1-(1-(bicyclo[3.1.1]heptane-1-carbonyl)piperidin-4-yl)-1H-pyrazol-4-yl)methyl)-2-oxobenzo[cd]indol-1(2H)-yl)piperidine-2,6-dione] here?
Answer: < 1 nM

Question: `O=C1CCC(N2C(=O)c3cccc4c(Cc5cnn(C6CCN(C(=O)C7(C(F)(F)F)CCC7)CC6)c5)ccc2c34)C(=O)N1` (stereo not shown) [Compound 51, 3-(2-oxo-6-((1-(1-(1-(trifluoromethyl)cyclobutane-1-carbonyl)piperidin-4-yl)-1H-pyrazol-4-yl)methyl)benzo[cd]indol-1(2H)-yl)piperidine-2,6-dione] was tested. Which IC50 did it give?
Answer: < 1 nM

Question: `O=C1CCC(N2C(=O)c3cccc4c(Cc5cnn(C6CCN(C(=O)C7(C(F)(F)F)CC7)CC6)c5)ccc2c34)C(=O)N1` (stereo not shown) [Compound 52, 3-(2-oxo-6-((1-(1-(1-(trifluoromethyl)cyclopropane-1-carbonyl)piperidin-4-yl)-1H-pyrazol-4-yl)methyl)benzo[cd]indol-1(2H)-yl)piperidine-2,6-dione] was tested. Which IC50 did it give?
Answer: < 1 nM

Question: Which IC50 does the source give for `CC1(C(=O)N2CCC(n3cc(Cc4ccc5c6c(cccc46)C(=O)N5C4CCC(=O)NC4=O)cn3)CC2)CCC1` (stereo not shown) [Compound 53, 3-(6-((1-(1-(1-methylcyclobutane-1-carbonyl)piperidin-4-yl)-1H-pyrazol-4-yl)methyl)-2-oxobenzo[cd]indol-1(2H)-yl)piperidine-2,6-dione] here?
Answer: < 1 nM

Question: How did the IC50 turn out when `O=C1CCC(N2C(=O)c3cccc4c(Cc5cnn(C6CCN(C(=O)C78C9C%10C%11C9C7C%11C%108)CC6)c5)ccc2c34)C(=O)N1` (stereo not shown) [Compound 54, 3-(6-((1-(1-(cubane-1-carbonyl)piperidin-4-yl)-1H-pyrazol-4-yl)methyl)-2-oxobenzo[cd]indol-1(2H)-yl)piperidine-2,6-dione] was run?
Answer: < 1 nM

Question: With `CC1(CN2CCC(n3cc(Cc4ccc5c6c(cccc46)C(=O)N5C4CCC(=O)NC4=O)cn3)CC2)CCC1` (stereo not shown) [Compound 55, 3-(6-((1-(1-((1-methylcyclobutyl)methyl)piperidin-4-yl)-1H-pyrazol-4-yl)methyl)-2-oxobenzo[cd]indol-1(2H)-yl)piperidine-2,6-dione] as the compound, how does the IC50 read?
Answer: < 1 nM

Question: With `COC1(CN2CCC(n3cc(Cc4ccc5c6c(cccc46)C(=O)N5C4CCC(=O)NC4=O)cn3)CC2)CCC1` (stereo not shown) [Compound 56, 3-(6-((1-(1-((1-methoxycyclobutyl)methyl)piperidin-4-yl)-1H-pyrazol-4-yl)methyl)-2-oxobenzo[cd]indol-1(2H)-yl)piperidine-2,6-dione] as the compound, how does the IC50 read?
Answer: < 1 nM

Question: Which IC50 does the source give for `O=C1CCC(N2C(=O)c3cccc4c(Cc5cnn(C6CCN(CC7(C(F)(F)F)CCC7)CC6)c5)ccc2c34)C(=O)N1` (stereo not shown) [Compound 57, 3-(2-oxo-6-((1-(1-((1-(trifluoromethyl)cyclobutyl)methyl)piperidin-4-yl)-1H-pyrazol-4-yl)methyl)benzo[cd]indol-1(2H)-yl)piperidine-2,6-dione] here?
Answer: < 1 nM

Question: With `COC(C)(C)CN1CCC(n2cc(Cc3ccc4c5c(cccc35)C(=O)N4C3CCC(=O)NC3=O)cn2)CC1` (stereo not shown) [Compound 58, 3-(6-((1-(1-(2-methoxy-2-methylpropyl)piperidin-4-yl)-1H-pyrazol-4-yl)methyl)-2-oxobenzo[cd]indol-1(2H)-yl)piperidine-2,6-dione] as the compound, how does the IC50 read?
Answer: < 1 nM

Question: Which IC50 does the source give for `O=C1CCC(N2C(=O)c3cccc4c(Cc5cnn(C6CCN(CC7(F)CCC7)CC6)c5)ccc2c34)C(=O)N1` (stereo not shown) [Compound 59, 3-(6-((1-(1-((1-fluorocyclobutyl)methyl)piperidin-4-yl)-1H-pyrazol-4-yl)methyl)-2-oxobenzo[cd]indol-1(2H)-yl)piperidine-2,6-dione] here?
Answer: < 1 nM

Question: With `N#CC1(CN2CCC(n3cc(Cc4ccc5c6c(cccc46)C(=O)N5C4CCC(=O)NC4=O)cn3)CC2)CCC1` (stereo not shown) [Compound 60, 1-((4-(4-((1-(2,6-dioxopiperidin-3-yl)-2-oxo-1,2-dihydrobenzo[cd]indol-6-yl)methyl)-1H-pyrazol-1-yl)piperidin-1-yl)methyl)cyclobutane-1-carbonitrile] as the compound, how does the IC50 read?
Answer: < 1 nM

Question: Which IC50 does the source give for `CC(C)(C#N)CN1CCC(n2cc(Cc3ccc4c5c(cccc35)C(=O)N4C3CCC(=O)NC3=O)cn2)CC1` (stereo not shown) [Compound 61, 3-(4-(4-((1-(2,6-dioxopiperidin-3-yl)-2-oxo-1,2-dihydrobenzo[cd]indol-6-yl)methyl)-1H-pyrazol-1-yl)piperidin-1-yl)-2,2-dimethylpropanenitrile] here?
Answer: < 1 nM

Question: Which IC50 does the source give for `O=C1CCC(N2C(=O)c3cccc4c(Cc5cnn(C6CCN(CC7(C(F)(F)F)CC7)CC6)c5)ccc2c34)C(=O)N1` (stereo not shown) [Compound 62, 3-(2-oxo-6-((1-(1-((1-(trifluoromethyl)cyclopropyl)methyl)piperidin-4-yl)-1H-pyrazol-4-yl)methyl)benzo[cd]indol-1(2H)-yl)piperidine-2,6-dione] here?
Answer: < 1 nM

Question: `CC(C)(C)CN1CCC(n2cc(Cc3ccc4c5c(cccc35)C(=O)N4C3CCC(=O)NC3=O)cn2)CC1` (stereo not shown) [Compound 63, 3-(6-((1-(1-neopentylpiperidin-4-yl)-1H-pyrazol-4-yl)methyl)-2-oxobenzo[cd]indol-1(2H)-yl)piperidine-2,6-dione] was tested. Which IC50 did it give?
Answer: < 1 nM

Question: With `CC1(CN2CCC(n3cc(Cc4ccc5c6c(cccc46)C(=O)N5C4CCC(=O)NC4=O)cn3)CC2)CC1` (stereo not shown) [Compound 64, 3-[6-[[1-[1-[(1-methylcyclopropyl)methyl]-4-piperidyl]pyrazol-4-yl]methyl]-2-oxo-benzo[cd]indol-1-yl]piperidine-2,6-dione] as the compound, how does the IC50 read?
Answer: < 1 nM
